Assay results as given in US12570609B2, “Tricyclic sulfones as ROR gamma modulators” (BRISTOL-MYERS SQUIBB COMPANY, priority 2020, dated 2026).

Key:
Assay type in all cases: cell-based
[1] = target: T1, RORγ (Homo sapiens, UniProt P51449); assay: RORγ Gal4 reporter assay (Gal4-luciferase, Jurkat cells); conditions: Jurkat cells over-expressing RORγ, overnight incubation
T1 construct: Jurkat pEx/Gal/hRORγCLBD/HYG pG5luc/blast; expressed in transfected cells
T1 sequence (P51449 269-508 limits assumed): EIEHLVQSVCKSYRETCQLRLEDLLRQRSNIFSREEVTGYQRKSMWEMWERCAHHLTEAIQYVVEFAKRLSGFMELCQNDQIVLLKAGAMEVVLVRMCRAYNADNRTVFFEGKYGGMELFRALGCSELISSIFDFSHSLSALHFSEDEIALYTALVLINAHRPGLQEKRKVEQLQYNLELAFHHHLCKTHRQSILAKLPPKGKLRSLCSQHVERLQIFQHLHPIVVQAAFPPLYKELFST
Protocol: General RORγ Gal4 Reporter Assay
Inverse agonist activity of potential ligands to RORγ was measured by inhibition of luminescence in a Gal4-luciferase reporter assay in Jurkat cells.
The following day, cells were lysed with 10 μL of Steady-Glo Luciferase Assay System (Promega Cat. No. EZ550), and analyzed immediately. IC50 values were determined.

[2] = test system: IL17A; assay: Human whole blood assay (IL17A content, AlphaLISA); conditions: compared with Compound A
Protocol: The compounds were diluted in dimethyl sulfoxide (DMSO) and were transferred to individual wells of a Matrix Technologies clear, V-bottom 384-well plate using the ECHO acoustic liquid handling technology (60 nL per well). Human whole blood samples (30 μL) were added to each well using a CyBio FeliX liquid handling instrument and the plate was shaken on a plate shaker for 3 min, incubating at 37° C. for 1 h. Wells were then treated with CD3+CD28 with a final concentration of 1 μg/mL, 30 μL per well in an AIM-V medium, the plate was shaken on a plate shaker for 3 min before incubating the reaction mixtures at 37° C. for 20 h. Plasma was liberated from each sample by centrifugation (450 g, 5 min, ambient temperature).

[3] = target: T2, human sodium channel gene SCN5A ion channel (Homo sapiens, UniProt Q14524); assay: Patch clamp assay for sodium channel recording; conditions: HEK 293 cells expressing SCN5A
T2 construct: expressed in transfected cells
T2 sequence (Q14524 whole entry): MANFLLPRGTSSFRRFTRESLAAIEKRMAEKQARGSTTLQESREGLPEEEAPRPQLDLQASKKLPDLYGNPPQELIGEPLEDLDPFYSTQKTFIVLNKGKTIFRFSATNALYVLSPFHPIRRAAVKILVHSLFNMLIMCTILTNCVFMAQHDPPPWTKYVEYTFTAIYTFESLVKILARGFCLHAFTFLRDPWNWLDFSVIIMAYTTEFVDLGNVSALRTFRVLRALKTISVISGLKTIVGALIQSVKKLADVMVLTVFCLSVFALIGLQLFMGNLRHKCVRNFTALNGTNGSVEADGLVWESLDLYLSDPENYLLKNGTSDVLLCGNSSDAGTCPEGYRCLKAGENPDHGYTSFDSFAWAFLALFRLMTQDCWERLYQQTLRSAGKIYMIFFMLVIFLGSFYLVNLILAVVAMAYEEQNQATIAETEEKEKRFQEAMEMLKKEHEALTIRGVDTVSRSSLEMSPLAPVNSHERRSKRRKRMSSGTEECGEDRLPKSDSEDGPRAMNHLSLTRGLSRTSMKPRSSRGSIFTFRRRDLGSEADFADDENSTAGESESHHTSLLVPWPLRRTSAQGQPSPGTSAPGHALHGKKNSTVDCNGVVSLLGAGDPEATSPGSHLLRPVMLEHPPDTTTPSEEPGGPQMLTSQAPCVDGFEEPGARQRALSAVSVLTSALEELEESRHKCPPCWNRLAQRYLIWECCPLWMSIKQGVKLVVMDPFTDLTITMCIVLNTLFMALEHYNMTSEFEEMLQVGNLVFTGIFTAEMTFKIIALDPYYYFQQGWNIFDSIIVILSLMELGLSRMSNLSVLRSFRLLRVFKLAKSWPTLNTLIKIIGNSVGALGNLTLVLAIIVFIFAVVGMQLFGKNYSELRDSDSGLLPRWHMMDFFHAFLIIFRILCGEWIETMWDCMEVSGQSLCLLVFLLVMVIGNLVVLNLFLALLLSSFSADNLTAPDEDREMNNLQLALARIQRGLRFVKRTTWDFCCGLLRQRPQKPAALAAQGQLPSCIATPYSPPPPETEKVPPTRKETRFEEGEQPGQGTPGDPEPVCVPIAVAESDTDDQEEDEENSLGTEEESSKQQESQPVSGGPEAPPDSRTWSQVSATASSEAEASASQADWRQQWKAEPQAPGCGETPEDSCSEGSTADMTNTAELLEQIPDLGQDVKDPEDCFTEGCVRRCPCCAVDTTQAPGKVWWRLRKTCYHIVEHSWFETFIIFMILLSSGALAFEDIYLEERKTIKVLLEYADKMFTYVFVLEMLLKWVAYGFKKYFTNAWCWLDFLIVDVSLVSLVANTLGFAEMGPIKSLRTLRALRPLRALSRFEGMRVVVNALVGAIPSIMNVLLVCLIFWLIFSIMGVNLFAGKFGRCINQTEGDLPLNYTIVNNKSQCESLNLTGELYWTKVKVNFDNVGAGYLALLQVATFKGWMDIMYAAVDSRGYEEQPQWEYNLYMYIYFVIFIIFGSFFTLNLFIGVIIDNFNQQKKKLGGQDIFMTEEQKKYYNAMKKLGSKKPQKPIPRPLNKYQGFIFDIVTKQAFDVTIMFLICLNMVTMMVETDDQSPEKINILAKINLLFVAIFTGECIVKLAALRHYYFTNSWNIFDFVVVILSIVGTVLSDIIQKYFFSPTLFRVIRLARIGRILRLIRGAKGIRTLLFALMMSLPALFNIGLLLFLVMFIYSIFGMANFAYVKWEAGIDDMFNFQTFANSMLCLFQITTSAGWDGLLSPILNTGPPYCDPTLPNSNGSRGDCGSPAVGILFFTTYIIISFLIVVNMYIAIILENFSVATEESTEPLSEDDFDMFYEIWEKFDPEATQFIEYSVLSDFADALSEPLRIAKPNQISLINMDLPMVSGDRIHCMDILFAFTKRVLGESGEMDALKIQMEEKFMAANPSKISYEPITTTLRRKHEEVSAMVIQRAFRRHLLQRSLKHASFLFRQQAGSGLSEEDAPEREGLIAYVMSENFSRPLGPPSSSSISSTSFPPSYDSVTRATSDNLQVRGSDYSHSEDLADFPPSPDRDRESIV
Source text: All results are reported as mean±SEM. DMSO was used as a vehicle, with the final concentration of DMSO not exceeding 0.1%.
Membrane current recordings were made with a Multiclamp 700 series integrating patch-clamp amplifier (Axon Instruments, Foster City, California) using the whole-cell variant of the conventional patch-clamp technique. Cells expressing sodium SCN5A ion channels were placed in a plexiglass bath chamber, mounted on the stage of an inverted microscope, and perfused continuously with bath solution.
The sodium current bath solution, contained (in mM): 140 NaCl, 4 KCl, 1.8 CaCl2, 1 MgCl2, 10 glucose, 10 HEPES (pH 7.4, NaOH). […]
For determining steady state inhibition, sodium currents were elicited every 5 seconds (0.2 Hz) using the following voltage protocol. […] The peak sodium current in response to the depolarizing step to −20 mV was monitored in the control buffer and after application of test article until a new steady state in the presence of the test article was achieved. […] Rate dependent inhibition was calculated by comparing the average of the last 3 sweeps of 30 voltage sweeps in presence of test article to the average of the last 3 sweeps of 30 voltage sweeps under control conditions at each frequency tested.
Currents were sampled at rates at least 2 times the low pass filter rate. […] All currents were recorded at room temperature ˜25° C.

Compound: CC(C)(O)CC(=O)N[C@@H]1CC[C@@]2(S(=O)(=O)c3ccc(F)cc3)c3ccc(C(F)(C(F)(F)F)C(F)(F)F)nc3CC[C@@H]12 [Example 2]
- IC50 [1]: 6 nM

Compound: O=C(O)C1CC2(C1)CC(C(=O)N[C@@H]1CC[C@@]3(S(=O)(=O)c4ccc(F)cc4)c4ccc(C(F)(C(F)(F)F)C(F)(F)F)nc4CC[C@@H]13)C2 (stereo partly shown) [Example 6]
- IC50 [1]: 7.9 nM

Compound: CC(C)(O)C(=O)N[C@@H]1CC[C@@]2(S(=O)(=O)c3ccc(F)cc3)c3ccc(C(F)(C(F)(F)F)C(F)(F)F)nc3CC[C@@H]12 [Example 4]
- IC50 [1]: 3.9 nM

Compound: O=C(N[C@@H]1CC[C@@]2(S(=O)(=O)c3ccc(F)cc3)c3ccc(C(F)(C(F)(F)F)C(F)(F)F)nc3CC[C@@H]12)C1CCS(=O)(=O)CC1 [Example 3]
- IC50 [1]: 8.4 nM

Compound: C[C@@](O)(CS(C)(=O)=O)C(=O)N[C@@H]1CC[C@@]2(S(=O)(=O)c3ccc(F)cc3)c3ccc(C(F)(C(F)(F)F)C(F)(F)F)nc3CC[C@@H]12 [Example 1, (S)—N-((6aS,7R,9aS)-9a-((4-fluorophenyl)sulfonyl)-3-(perfluoropropan-2-yl)-6,6a,7,8,9,9a-hexahydro-5H-cyclopenta[f]quinolin-7-yl)-2-hydroxy-2-methyl-3-(methylsulfonyl)propanamide]
- potency in the human whole blood assay relative to Compound A [2]: twice as potent
- activity in the Na channel assay (in words) [3]: essentially inactive
- IC50 ([3]; whole-cell patch clamp, read-out: Na Channel): > 30000 nM
